Measurements taken from patent US20100087516A1, “ANTIBACTERIAL MACROLACTIN A THAT BACILLUS POLYFERMENTICUS KJS-2 PRODUCED IN” (priority 2007, published 2010).

Experiments:
[1] = system: vancomycin-resistant enterococci (VRE); conditions: cited from earlier work
[2] = system: Vancomycin-resistant enterococci; test: Inhibitory effect on VRE in liquid medium; assay type: cell-based; conditions: for average absorbance (OD), Macrolactin A addition group: Average of 11 VRE strains
Experimental: For the experiment with VRE, the strains were inoculated into a liquid medium upto a concentration of 1,000,000 cfu/mL and cultured either with (for strains to be tested) or without (for controls) Macrolactin A. […] […] After 4 hours of culture, the average absorbance of the control group was 0.76, while that of the group cultured with Macrolactin A was 0.19, showing significant difference between the two groups.

[3] = system: a variety of microorganisms and fungi; test: Spectrum of antibiotic activity (general statement); assay type: cell-based

**Q.** Which “antibiotic activity against VRE” value [1] does the source give for CC1CCC/C=C/C=C/C(O)CC(O)C/C=C\C=C\C(O)C/C=C/C=C\C(=O)O1 (stereo not shown) [Macrolactin A] here?
**A.** antibiotic activity only against MRSA

**Q.** What about the “average absorbance (OD), Macrolactin A addition group” value ([2]; culture 4 hours, 50 μg/mL) of the same molecule?
**A.** 0.19 OD

**Q.** What about the “average absorbance (OD), Macrolactin A addition group” value ([2]; culture 6 hours, 50 μg/mL) of the same molecule?
**A.** 0.26 OD

**Q.** And the “OD, Macrolactin A addition group” value ([2]; VRE1, culture 4 hours, 50 μg/mL)?
**A.** 0.216 OD

**Q.** What about the “OD, Macrolactin A addition group” value ([2]; VRE1, culture 6 hours, 50 μg/mL) of the same molecule?
**A.** 0.207 OD

**Q.** What about the “OD, Macrolactin A addition group” value ([2]; VRE2, culture 4 hours, 50 μg/mL) of the same molecule?
**A.** 0.279 OD

**Q.** And the “OD, Macrolactin A addition group” value ([2]; VRE2, culture 6 hours, 50 μg/mL)?
**A.** 0.391 OD

**Q.** And the “OD, Macrolactin A addition group” value ([2]; VRE3, culture 4 hours, 50 μg/mL)?
**A.** 0.240 OD

**Q.** What about the “OD, Macrolactin A addition group” value ([2]; VRE3, culture 6 hours, 50 μg/mL) of the same molecule?
**A.** 0.314 OD

**Q.** And the “OD, Macrolactin A addition group” value ([2]; VRE4, culture 4 hours, 50 μg/mL)?
**A.** 0.166 OD

**Q.** And the “OD, Macrolactin A addition group” value ([2]; VRE4, culture 6 hours, 50 μg/mL)?
**A.** 0.180 OD

**Q.** And the “OD, Macrolactin A addition group” value ([2]; VRE5, culture 4 hours, 50 μg/mL)?
**A.** 0.176 OD

**Q.** What about the “OD, Macrolactin A addition group” value ([2]; VRE5, culture 6 hours, 50 μg/mL) of the same molecule?
**A.** 0.153 OD

**Q.** And the “OD, Macrolactin A addition group” value ([2]; VRE6, culture 4 hours, 50 μg/mL)?
**A.** 0.171 OD

**Q.** And the “OD, Macrolactin A addition group” value ([2]; VRE6, culture 6 hours, 50 μg/mL)?
**A.** 0.179 OD

**Q.** What about the “OD, Macrolactin A addition group” value ([2]; VRE7, culture 4 hours, 50 μg/mL) of the same molecule?
**A.** 0.173 OD

**Q.** And the “OD, Macrolactin A addition group” value ([2]; VRE7, culture 6 hours, 50 μg/mL)?
**A.** 0.133 OD

**Q.** What about the “OD, Macrolactin A addition group” value ([2]; VRE8, culture 4 hours, 50 μg/mL) of the same molecule?
**A.** 0.228 OD

**Q.** And the “OD, Macrolactin A addition group” value ([2]; VRE8, culture 6 hours, 50 μg/mL)?
**A.** 0.589 OD

**Q.** And the “growth of VRE8 and VRE11 in liquid medium” value ([2]; VRE8 and VRE11, 50 μg/mL, lower sensitivity than the other strains)?
**A.** notable growth retardation

**Q.** And the “OD, Macrolactin A addition group” value ([2]; VRE11, culture 4 hours, 50 μg/mL)?
**A.** 0.236 OD

**Q.** And the “OD, Macrolactin A addition group” value ([2]; VRE11, culture 6 hours, 50 μg/mL)?
**A.** 0.507 OD

**Q.** What about the “OD, Macrolactin A addition group” value ([2]; VRE14, culture 4 hours, 50 μg/mL) of the same molecule?
**A.** 0.078 OD

**Q.** And the “OD, Macrolactin A addition group” value ([2]; VRE14, culture 6 hours, 50 μg/mL)?
**A.** 0.050 OD

**Q.** What about the “OD, Macrolactin A addition group” value ([2]; VRE15, culture 4 hours, 50 μg/mL) of the same molecule?
**A.** 0.145 OD

**Q.** And the “OD, Macrolactin A addition group” value ([2]; VRE15, culture 6 hours, 50 μg/mL)?
**A.** 0.131 OD

**Q.** And the “growth of VRE strains in liquid medium” value ([2]; nine out of eleven strains tested, 50 μg/mL)?
**A.** remarkable growth inhibition

**Q.** What about the “spectrum of antibiotic activity” value [3] of the same molecule?
**A.** broad spectrum of antibiotic activity
